Common to all, as to format: biochemical
For one assay, the target named is T1, 5-lipoxygenase (Rattus norvegicus, UniProt P12527).
T1 construct: homogenized RBL-1 cells; endogenous in cells; host or cells: RBL-1 cells (20,000×G supernatant of homogenate)
T1 sequence (P12527 1-673): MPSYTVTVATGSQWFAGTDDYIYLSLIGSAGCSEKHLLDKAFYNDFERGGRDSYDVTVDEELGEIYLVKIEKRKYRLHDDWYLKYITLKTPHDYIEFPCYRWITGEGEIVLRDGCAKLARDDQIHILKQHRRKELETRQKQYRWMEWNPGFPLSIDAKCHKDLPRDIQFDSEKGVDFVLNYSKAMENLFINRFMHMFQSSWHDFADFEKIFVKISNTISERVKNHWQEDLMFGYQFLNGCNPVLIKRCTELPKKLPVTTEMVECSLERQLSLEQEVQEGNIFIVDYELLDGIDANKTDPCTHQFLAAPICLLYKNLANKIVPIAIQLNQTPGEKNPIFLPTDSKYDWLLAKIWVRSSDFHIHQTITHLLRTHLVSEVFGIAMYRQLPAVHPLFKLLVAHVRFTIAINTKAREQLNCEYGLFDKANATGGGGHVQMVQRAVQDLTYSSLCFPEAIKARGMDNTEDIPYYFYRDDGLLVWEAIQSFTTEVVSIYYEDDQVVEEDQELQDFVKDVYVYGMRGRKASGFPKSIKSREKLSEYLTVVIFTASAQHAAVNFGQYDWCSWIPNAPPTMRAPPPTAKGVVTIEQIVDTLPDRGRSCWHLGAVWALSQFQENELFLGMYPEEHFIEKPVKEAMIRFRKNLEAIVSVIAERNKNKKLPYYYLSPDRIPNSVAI
The assay can be described thus: 5-Lipoxygenase IC50 determination (20,000×G supernatant of homogenized RBL-1 cells, radiolabeled arachidonic acid). To be noted: 20,000×G supernatant from homogenized RBL-1 cells. On the procedure: (§1) Reactions were initiated by the addition of radiolabeled arachidonic acid and terminated by acidification and ether extraction. Reaction products were separated from nonconverted substrate by thin layer chromatography and measured by liquid scintillatiton spectroscopy. Inhibition of 5-lipoxygenase activity was calculated as the ratio of the amounts of product formed in the presence and absence of inhibitor.

The target of the next assay is T2, 15-lipoxygenase (Glycine max, UniProt P08170).
T2 construct: 15-lipoxygenase obtained from soybean; from tissue; host or cells: soybean
T2 sequence (P08170 1-839): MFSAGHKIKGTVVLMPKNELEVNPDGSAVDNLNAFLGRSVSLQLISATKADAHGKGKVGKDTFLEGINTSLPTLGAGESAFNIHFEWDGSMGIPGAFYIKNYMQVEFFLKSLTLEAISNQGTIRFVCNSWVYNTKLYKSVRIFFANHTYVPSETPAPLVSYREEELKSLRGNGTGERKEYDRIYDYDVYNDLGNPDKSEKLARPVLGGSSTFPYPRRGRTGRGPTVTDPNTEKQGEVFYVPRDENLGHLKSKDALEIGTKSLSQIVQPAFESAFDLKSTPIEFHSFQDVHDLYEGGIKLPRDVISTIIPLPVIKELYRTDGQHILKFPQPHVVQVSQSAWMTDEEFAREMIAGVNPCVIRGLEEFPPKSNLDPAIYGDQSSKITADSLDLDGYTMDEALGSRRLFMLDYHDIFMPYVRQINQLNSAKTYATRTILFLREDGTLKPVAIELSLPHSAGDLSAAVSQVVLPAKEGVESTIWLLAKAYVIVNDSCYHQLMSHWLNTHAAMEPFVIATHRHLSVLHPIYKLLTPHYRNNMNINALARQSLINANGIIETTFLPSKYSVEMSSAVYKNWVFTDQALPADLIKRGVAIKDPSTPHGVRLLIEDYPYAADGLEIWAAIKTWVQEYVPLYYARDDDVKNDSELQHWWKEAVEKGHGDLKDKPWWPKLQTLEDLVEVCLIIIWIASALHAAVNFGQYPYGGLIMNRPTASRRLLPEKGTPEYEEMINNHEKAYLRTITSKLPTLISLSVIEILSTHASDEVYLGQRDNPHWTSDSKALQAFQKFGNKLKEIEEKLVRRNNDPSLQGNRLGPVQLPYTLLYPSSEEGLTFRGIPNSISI
Kind of assay: Inhibition of 15-lipoxygenase obtained from soybean. The conditions noted are these: for inhibition at 10 µM: read-out: % Inhibition at Indicated Concentration, 15-lipoxygenase, 10 uM; for inhibition at 100 µM: read-out: % Inhibition at Indicated Concentration, 15-lipoxygenase, 100 uM. As for the experimental part:
as §1, with “The compounds of this invention are potent inhibitors of 5-, 12- and 15-lipoxygenase. An assay to determine 5-lipoxygenase activity was performed in incubations containing various concentrations of the test compound and the 20,000×G supernatant from 7.5×10^6 homogenized RBL-1 cells. Reactions” for “Reactions”
(§2) The inhibitory activities of the compounds of this invention against 12- and 15-lipoxygenase can be determined in the foregoing assay in which 12-lipoxygenase obtained from human platelets, or 15-lipoxygenase obtained from soybean, is substituted for the 5-lipoxygenase-containing cell supernatant fraction.

The target of the next assay is T3, 12-lipoxygenase (Homo sapiens, UniProt P18054).
T3 construct: 12-lipoxygenase obtained from human platelets; from tissue; host or cells: human platelets
T3 sequence (P18054 1-663): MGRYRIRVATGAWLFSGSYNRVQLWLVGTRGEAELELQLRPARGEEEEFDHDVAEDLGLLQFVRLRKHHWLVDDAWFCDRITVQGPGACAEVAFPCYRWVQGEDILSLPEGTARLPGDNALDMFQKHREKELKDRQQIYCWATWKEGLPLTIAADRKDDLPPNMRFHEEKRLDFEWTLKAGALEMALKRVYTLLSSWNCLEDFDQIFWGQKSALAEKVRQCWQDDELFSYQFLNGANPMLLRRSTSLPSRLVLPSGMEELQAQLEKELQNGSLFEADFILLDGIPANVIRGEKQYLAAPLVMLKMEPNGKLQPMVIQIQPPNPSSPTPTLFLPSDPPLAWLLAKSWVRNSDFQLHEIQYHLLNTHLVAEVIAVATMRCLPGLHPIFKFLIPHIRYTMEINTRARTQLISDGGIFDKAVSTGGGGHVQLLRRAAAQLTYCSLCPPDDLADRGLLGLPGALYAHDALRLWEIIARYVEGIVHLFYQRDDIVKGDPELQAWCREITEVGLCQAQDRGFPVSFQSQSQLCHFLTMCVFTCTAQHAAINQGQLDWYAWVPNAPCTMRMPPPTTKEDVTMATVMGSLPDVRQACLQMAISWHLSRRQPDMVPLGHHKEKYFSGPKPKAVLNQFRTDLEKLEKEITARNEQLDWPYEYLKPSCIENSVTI
The assay can be described thus: Inhibition of 12-lipoxygenase obtained from human platelets. To be noted: human platelet 12-lipoxygenase. As for the experimental part: as §1, with “The compounds of this invention are potent inhibitors of 5-, 12- and 15-lipoxygenase. An assay to determine 5-lipoxygenase activity was performed in incubations containing various concentrations of the test compound and the 20,000×G supernatant from 7.5×10^6 homogenized RBL-1 cells. Reactions” for “Reactions”
as §2

Where [1] appears, read: 100 uM, soybean 15-lipoxygenase.

The values that follow come from patent US4605669A, “Lipoxygenase inhibiting naphthohydroxamic acids” (Abbott Laboratories, priority 1985, dated 1986).

Read-outs that look alike come from different tables or passages of the source.

As a reminder, the IC50 is the point on the concentration scale where inhibition reaches its midpoint. High values mean weaker potency, low ones greater potency. As a reminder, the % Inhibition is how much of the control response was suppressed. Take “6-(1-non-2-enoxy)-2-naphthohydroxamic acid [Example 8]”: half-maximal inhibition at 5-lipoxygenase (IC50) required 2.9 µM. The “% Inhibition at Indicated Concentration, 15-lipoxygenase, 10 uM” value on 15-lipoxygenase (10 uM, soybean 15-lipoxygenase) is recorded as 10%. In addition, the “% Inhibition at Indicated Concentration, 15-lipoxygenase, 100 uM” value on 15-lipoxygenase (setting [1]) was 70%. In addition, on 12-lipoxygenase (10 uM), the “% Inhibition at Indicated Concentration, 12-lipoxygenase, 10 uM” value is recorded as 74%. Moreover, the “% Inhibition at Indicated Concentration, 12-lipoxygenase, 100 uM” value at 12-lipoxygenase (100 uM) is 77%.

Take `CCCCCCCCCOc1ccc2cc(C(=O)NO)ccc2c1` [Example 1, 6-(1-nonoxy)-2-naphthohydroxamic acid]: half-maximal inhibition on 5-lipoxygenase (IC50) was put at 20 µM.

As to `COc1ccc2cc(C(=O)NO)ccc2c1` [Example 2, 6-Methoxy-2-naphthohydroxamic acid], it took 8 µM to reach half-maximal inhibition at 5-lipoxygenase (IC50). For the same compound, at 15-lipoxygenase, the inhibition at 10 µM came out at 23% and the inhibition at 100 µM was determined as 44%.

As for `CCCCOc1ccc2cc(C(=O)NO)ccc2c1` [Example 3, 6-(1-butoxy)-2-naphthohydroxamic acid], the IC50 at 5-lipoxygenase came out at 2 µM. Besides, the inhibition at 10 µM at 15-lipoxygenase (10 uM, soybean 15-lipoxygenase) was determined as 45%. In addition, the inhibition at 100 µM on 15-lipoxygenase (setting [1]) came out at 51%.

On 5-lipoxygenase, `CCCCOc1ccc2cc(C(=O)N(C)O)ccc2c1` [Example 4, N-methyl-6-(1-butoxy)-2-naphthohydroxamic acid] showed an IC50 of 0.41 µM. Moreover, the inhibition at 10 µM on 15-lipoxygenase (10 uM, soybean 15-lipoxygenase) worked out at 29%. Moreover, the inhibition at 100 µM on 15-lipoxygenase (setting [1]) worked out at 74%.

Compound `CCCCCCCOc1ccc2cc(C(=O)NO)ccc2c1` [Example 5, 6-(1-heptoxy)-2-naphthohydroxamic acid] returned an IC50 on 5-lipoxygenase of 7.1 µM.

Compound `CCCCCCCCOc1ccc2cc(C(=O)NO)ccc2c1` [Example 6, 6-(1-octoxy)-2-naphthohydroxamic acid] came in with an IC50 against 5-lipoxygenase of 6.5 µM. The inhibition at 10 µM at 12-lipoxygenase (10 uM, read-out: % Inhibition at Indicated Concentration, 12-lipoxygenase, 10 uM) turned out to be 68%. Further, the inhibition at 100 µM on 12-lipoxygenase (100 uM, read-out: % Inhibition at Indicated Concentration, 12-lipoxygenase, 100 uM) was determined as 71%.

Compound `C=CCOc1ccc2cc(C(=O)NO)ccc2c1` [Example 7, 6-(1-prop-2-enoxy)-2-naphthohydroxamic acid] gave a 50% inhibitory concentration (IC50) against 5-lipoxygenase of 4.6 µM.

`O=C(NO)c1ccc2cc(OCc3ccccc3)ccc2c1` [Example 9, 6-(benzyloxy)-2-naphthohydroxamic acid] showed an IC50 against 5-lipoxygenase of 30 µM.
